How the values were obtained:
BA/F3-FLT3-ITD + D835Y = target: T1, BA/F3-FLT3-ITD + D835Y (Homo sapiens, UniProt P36888, D835Y, cells depend on it, form not given); assay: Engineered BA/F3 cell growth assay, FLT3 ITD/D835Y; type: cell-based, murine; settings: 3 d growth
T1 sequence (P36888 with tags, fused parts or gaps INS600HVDFREYEYD/D835Y): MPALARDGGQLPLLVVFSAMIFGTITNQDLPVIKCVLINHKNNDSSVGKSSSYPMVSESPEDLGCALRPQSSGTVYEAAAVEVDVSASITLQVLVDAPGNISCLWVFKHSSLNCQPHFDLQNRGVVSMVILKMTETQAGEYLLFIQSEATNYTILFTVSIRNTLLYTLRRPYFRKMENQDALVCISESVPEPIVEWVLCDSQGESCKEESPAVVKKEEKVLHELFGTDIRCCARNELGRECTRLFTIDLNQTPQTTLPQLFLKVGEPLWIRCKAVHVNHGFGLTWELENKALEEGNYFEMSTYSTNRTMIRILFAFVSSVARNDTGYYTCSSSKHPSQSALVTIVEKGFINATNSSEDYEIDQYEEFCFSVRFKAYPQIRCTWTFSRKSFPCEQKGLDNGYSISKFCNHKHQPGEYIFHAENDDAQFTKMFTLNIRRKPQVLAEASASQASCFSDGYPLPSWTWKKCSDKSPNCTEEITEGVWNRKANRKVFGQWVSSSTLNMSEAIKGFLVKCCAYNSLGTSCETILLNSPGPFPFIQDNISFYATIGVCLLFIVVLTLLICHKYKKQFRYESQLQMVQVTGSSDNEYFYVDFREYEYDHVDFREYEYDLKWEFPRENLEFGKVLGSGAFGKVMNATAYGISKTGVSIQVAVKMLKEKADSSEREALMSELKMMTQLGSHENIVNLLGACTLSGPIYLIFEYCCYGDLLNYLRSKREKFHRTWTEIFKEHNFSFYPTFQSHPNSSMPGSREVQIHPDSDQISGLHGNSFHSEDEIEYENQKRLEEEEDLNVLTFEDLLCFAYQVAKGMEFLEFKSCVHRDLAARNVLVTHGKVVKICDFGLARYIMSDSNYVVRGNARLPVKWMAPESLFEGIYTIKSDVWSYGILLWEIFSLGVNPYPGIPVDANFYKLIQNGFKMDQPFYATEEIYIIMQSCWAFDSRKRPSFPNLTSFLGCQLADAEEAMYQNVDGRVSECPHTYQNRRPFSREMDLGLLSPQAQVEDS
From the text: (§1) The FLT3 inhibitors may be assessed using the MOLM-14, Acute Myeloid Leukemia cell line that endogenously expresses FLT3 ITD or derivatives of the human FLT3 AML cell line which acquired the D835Y (activation loop) of F691L (gatekeeper) mutation after selection in escalating doses of the FLT3 Inhibitor AC220. FLT3 inhibitors may also be assessed using cells that are engineered to express mutant FLT3. For engineered cells, murine Ba/F3 cells were transfected with full-length FLT3 ITD/D835Y mutations. The parental BA/F3 cells are dependent upon Interleukin-3 (IL-3) for survival, and introduction of the FLT3 constructs rendered these cells dependent upon FLT3 kinase activity when cultured in the absences of IL-3. Engineered BA/F3 cell growth assays can be performed in either the […] of IL-3, to assess the compound inhibition of FLT3 or to detect the presence of off-target activity, respectively. Inhibitors of FLT3 kinase activity reduce or eliminate the FLT3 oncogenic signaling, resulting in reduced cell proliferation. This inhibition is measured as a function of compound concentration to assess IC50 values.
(§2) Cell lines used in proliferation assays are as follows in Table 2:
(§3) Cells were seeded at 1×10^4 cells per well of a 96 well cell culture plate in 50 μl of cell culture medium. Compounds were dissolved in DMSO, typically at a concentration of 0.5 mM and were serially diluted 1:3 for a total of eight points and added to the cells to final concentrations of […], 0.0041, 0.0014 and 0.00046 μM in 100 μl cell culture medium (final concentration 0.2% DMSO). […] The cells were incubated at 37° C., 5% CO2 for three days. CellTiter-Glo Buffer (Promega Cell Viability Assay catalog #G7573) and substrate were equilibrated to room temperature, and enzyme/substrate Recombinant Firefly Luciferase/Beetle Luciferin was reconstituted. The cell plates were equilibrated to room temperature for 30 minutes, then lysed by addition of an equivalent volume of the Celltiter-Glo Reagent. The plate was mixed for 10 minutes on a plate shaker to lyse the cells. The plates were read on a Tecan M1000 using Luminescence protocol modified to read 0.1 s per well. The luminescence reading assesses the ATP content, which correlates directly with cell number such that the reading as a function of compound concentration was used to determine the IC50 value.
The BaF3 assays as developed used to generate the data in Tables 7 and 8 are identical and differ only in minor details in regards to vector design, not biological function. Both introduce the FLT3 gene with MV4-11 based ITD duplications and resistance mutations from an exogenous promoter (MSCV and CMV respectively) in the exact same cell line.
As a result of the expressed FLT3 protein, the IL3 factor dependent BaF3 cell clones become IL3-factor independent.
The compounds in Tables 7 and 8 were tested in an identical fashion by incubating such clones in with increasing concentrations. Inhibition of the FLT3 activity by an inhibitor results in factor dependency, which in the absence of IL3 results in cell death in the three day growth assays.

[1] = tested on: MOLM-14 D835Y (endogenous FLT3 ITD and transfected FLT3 D835Y); assay: MOLM-14 D835Y cell proliferation assay (CellTiter-Glo); type: cell-based; settings: Homo sapiens, MOLM-14, 72 h; 3 d growth, GMean
From the text: as §1, §2, §3

[2] = tested on: MOLM-14 F691L (endogenous FLT3 ITD and transfected FLT3 F691L); assay: MOLM-14 F691L cell proliferation assay (CellTiter-Glo); type: cell-based; settings: Homo sapiens, MOLM-14, 72 h; 3 d growth, GMean
From the text: as §1, §2, §3

GI50 (BA/F3-FLT3-ITD + D835Y) [µM] | IC50 [1] [µM] | IC50 [2] [µM] | SMILES
0.0001 to 10 | 0.0001 to 10 | 0.0001 to 10 | COCC#Cc1cc2cc(-c3ccc(CC(=O)Nc4cnc(OC)c(C(F)(F)F)c4)cc3)cnc2[nH]1 [Compound P-0056, 2-[4-[2-(3-methoxyprop-1-ynyl)-1H-pyrrolo[2,3-b]pyridin-5-yl]phenyl]-N-[6-methoxy-5-(trifluoromethyl)-3-pyridyl]acetamide]
0.0001 to 10 | 0.0001 to 10 | 0.0001 to 10 | Cn1cc(Nc2ncc(-c3ccc(CC(=O)Nc4cc(C(C)(F)F)ccn4)c(F)c3)cn2)cn1 [Compound P-0093, N-[4-(1,1-difluoroethyl)-2-pyridyl]-2-[2-fluoro-4-[2-[(1-methylpyrazol-4-yl)amino]pyrimidin-5-yl]phenyl]acetamide]
0.0001 to 10 | 0.0001 to 10 | 0.0001 to 10 | Cn1cc(Nc2ncc(-c3ccc(CC(=O)Nc4ccnc(C(C)(C)C)c4)cc3)cn2)cn1 [Compound P-0112, N-(2-tert-butyl-4-pyridyl)-2-[4-[2-[(1-methylpyrazol-4-yl)amino]pyrimidin-5-yl]phenyl]acetamide]
0.0001 to 10 | 0.0001 to 10 | 0.0001 to 10 | Cn1cc(Nc2ncc(-c3ccc(CC(=O)Nc4cnc(Cl)c(Cl)c4)cc3)cn2)cn1 [Compound P-0116, N-(5,6-dichloro-3-pyridyl)-2-[4-[2-[(1-methylpyrazol-4-yl)amino]pyrimidin-5-yl]phenyl]acetamide]
0.0001 to 10 | 0.0001 to 10 | 0.0001 to 10 | Cn1cc(Nc2ncc(-c3ccc(CC(=O)Nc4cnc(Cl)c(Br)c4)cc3)cn2)cn1 [Compound P-0117, N-(5-bromo-6-chloro-3-pyridyl)-2-[4-[2-[(1-methylpyrazol-4-yl)amino]pyrimidin-5-yl]phenyl]acetamide]
0.0001 to 10 | 0.0001 to 10 | 0.0001 to 10 | COc1ncc(NC(=O)Cc2ccc(-c3cnc(Nc4cnn(C)c4)nc3)cc2)cc1Br [Compound P-0118, N-(5-bromo-6-methoxy-3-pyridyl)-2-[4-[2-[(1-methylpyrazol-4-yl)amino]pyrimidin-5-yl]phenyl]acetamide]
0.0001 to 10 | 0.0001 to 10 | 0.0001 to 10 | Cn1cc(Nc2ncc(-c3ccc(CC(=O)Nc4cnc5[nH]ccc5c4)cc3)cn2)cn1 [Compound P-0119, 2-[4-[2-[(1-methylpyrazol-4-yl)amino]pyrimidin-5-yl]phenyl]-N-(1H-pyrrolo[2,3-b]pyridin-5-yl)acetamide]
0.0001 to 10 | 0.0001 to 10 | 0.0001 to 10 | Cc1n[nH]c2ncc(NC(=O)Cc3ccc(-c4cnc(Nc5cnn(C)c5)nc4)cc3)cc12 [Compound P-0120, N-(3-methyl-1H-pyrazolo[3,4-b]pyridin-5-yl)-2-[4-[2-[(1-methylpyrazol-4-yl)amino]pyrimidin-5-yl]phenyl]acetamide]
0.0001 to 10 | 0.0001 to 10 | 0.0001 to 10 | Cn1cc(Nc2ncc(-c3ccc(CC(=O)NCc4c(Cl)cccc4Cl)cc3)cn2)cn1 [Compound P-0123, N-[(2,6-dichlorophenyl)methyl]-2-[4-[2-[(1-methylpyrazol-4-yl)amino]pyrimidin-5-yl]phenyl]acetamide]
0.0001 to 10 | 0.0001 to 10 | 0.0001 to 10 | Cn1cc(Nc2ncc(-c3ccc(CC(=O)NCc4cc(F)ccc4Cl)cc3)cn2)cn1 [Compound P-0124, N-[(2-chloro-5-fluoro-phenyl)methyl]-2-[4-[2-[(1-methylpyrazol-4-yl)amino]pyrimidin-5-yl]phenyl]acetamide]
0.0001 to 10 | 0.0001 to 10 | 0.0001 to 10 | Cn1cc(Nc2ncc(-c3ccc(CC(=O)NCc4ccc(F)cc4Cl)cc3)cn2)cn1 [Compound P-0125, N-[(2-chloro-4-fluoro-phenyl)methyl]-2-[4-[2-[(1-methylpyrazol-4-yl)amino]pyrimidin-5-yl]phenyl]acetamide]
0.0001 to 10 | 0.0001 to 10 | 0.0001 to 10 | Cn1cc(Nc2ncc(-c3ccc(CC(=O)NCc4c(F)cccc4Cl)cc3)cn2)cn1 [Compound P-0127, N-[(2-chloro-6-fluoro-phenyl)methyl]-2-[4-[2-[(1-methylpyrazol-4-yl)amino]pyrimidin-5-yl]phenyl]acetamide]
0.0001 to 10 | 0.0001 to 10 | 0.0001 to 10 | Cn1cc(Nc2ncc(-c3ccc(CC(=O)NCc4cccc(C(F)(F)F)c4)cc3)cn2)cn1 [Compound P-0128, 2-[4-[2-[(1-methylpyrazol-4-yl)amino]pyrimidin-5-yl]phenyl]-N-[[3-(trifluoromethyl)phenyl]methyl]acetamide]
0.0001 to 10 | 0.0001 to 10 | 0.0001 to 10 | Cn1cc(Nc2ncc(-c3ccc(CC(=O)NCc4ccc(C(F)(F)F)cc4)cc3)cn2)cn1 [Compound P-0129, 2-[4-[2-[(1-methylpyrazol-4-yl)amino]pyrimidin-5-yl]phenyl]-N-[[4-(trifluoromethyl)phenyl]methyl]acetamide]
0.0001 to 10 | 0.0001 to 10 | 0.0001 to 10 | Cc1noc2ncc(NC(=O)Cc3ccc(-c4cnc(Nc5cnn(C)c5)nc4)cc3)cc12 [Compound P-0130, N-(3-methylisoxazolo[5,4-b]pyridin-5-yl)-2-[4-[2-[(1-methylpyrazol-4-yl)amino]pyrimidin-5-yl]phenyl]acetamide]
0.0001 to 10 | 0.0001 to 10 | 0.0001 to 10 | Cn1cc(Nc2ncc(-c3ccc(CC(=O)Nc4cc(C(C)(F)F)ccn4)cc3)cn2)cn1 [Compound P-0147, N-[4-(1,1-difluoroethyl)-2-pyridyl]-2-[4-[2-[(1-methylpyrazol-4-yl)amino]pyrimidin-5-yl]phenyl]acetamide]
0.0001 to 10 | 0.0001 to 10 | 0.0001 to 10 | Cn1cnc(Nc2ncc(-c3ccc(CC(=O)Nc4cnc(Cl)c(C(F)(F)F)c4)cc3)cn2)c1 [Compound P-0148, N-[6-chloro-5-(trifluoromethyl)-3-pyridyl]-2-[4-[2-[(1-methylimidazol-4-yl)amino]pyrimidin-5-yl]phenyl]acetamide]

SMILES | GI50 (BA/F3-FLT3-ITD + D835Y) [µM] | IC50 [1] [µM] | IC50 [2] [µM]
Cn1cc(Nc2ncc(-c3ccc(CC(=O)Nc4ccc(C#N)c(C(F)(F)F)c4)cc3)cn2)cn1 [Compound P-0113, N-[4-cyano-3-(trifluoromethyl)phenyl]-2-[4-[2-[(1-methylpyrazol-4-yl)amino]pyrimidin-5-yl]phenyl]acetamide] | 0.0001 to 10 | 0.0001 to 10 | 0.0001 to 10

— patent publication US10160747B2, “Compounds and methods for kinase modulation, and indications therefor” (Plexxikon Inc., priority 2016, dated 2018)
